Assay results reported in US20130224110A1, “USE OF ADENOSINE RECEPTOR SIGNALING TO MODULATE PERMEABILITY OF BLOOD-BRAIN BARRIER” (CORNELL UNIVERSITY, priority 2010, published 2013).

Tests used:
[1] = test system: blood brain barrier; test: Entry of i.v. anti-β-amyloid antibody 6E10 into brain of transgenic AD (APP/PSEN) mice after NECA; format: in vivo; conditions: NECA i.v. 3 h before 6E10 i.v., brains collected after 90 min
Protocol: Wild type and transgenic (AD) mice were given 0.80 μg NECA (i.v.). After 3 h, 400 μg of antibody to β-amyloid (200 μl of 2 mg/ml; clone 6E10, Covance, Princeton, N.J.) was administered i.v. and the mice rested for 90 min. Mice were then anesthetized and perfused as described above and their brains were placed in OTC and flash-frozen for later sectioning. Sagital sections (6 μm) were fixed in acetone for 10 min, then washed in PBS. Sections were blocked with casein for 20 min then incubated with 1:50 dilution of goat anti-mouse IgCy5 (polyclonal, 1 mg/ml, Abcam, Cabridge, Mass.) for 20 min then washed 3 times in PBS. Sections were then dried and mounted with VectashieldHardset mounting media with DAPI (Vector Laboratories, Burlingame, Calif.). Images were obtained on a Zeiss Axio Imager M1 fluorescent microscope.
The most challenging therapeutic agents to get across the BBB are macromolecules such as antibodies, due to their enormous size (˜150 kDa). It was asked whether adenosine receptor modulation with NECA can facilitate the entry of antibodies into the CNS. To test this, a double [amyloid precursor protein (APP)/presenilin (PSEN)] transgenic mouse model of AD [strain B6.Cg-Tg(APPswe,PSEN1dE9)85Dbo/J] was used. […]

[2] = test system: HCMECD3 cells; test: cAMP levels in human brain endothelial cells (cAMP Screen kit); format: cell-based; conditions: 15 minutes
Protocol: […]3 cells were grown to confluencey on 24 well plates. As adenosine receptor (“AR”) stimulation is known to influence cAMP levels, cells were treated with or without various concentrations of NECA (general AR agonist), CCPA (A1 AR agonist), CGS 21860 (A2A AR agonist), DMSO vehicle, or Forksolin (induces cAMP). After 15 minutes, lysis buffer was added and the cells were frozen at -80 C to stop the reaction. Duplicate samples were used for each condition. cAMP levels were assayed using a cAMP Screen kit (Applied Biosystems, Foster City, Calif.).

[3] = test system: blood brain barrier; test: Fluorescently labeled dextran extravasation into mouse brain (fluorimetry); format: in vivo, mice
Protocol: The adenosine receptor agonists NECA, CCPA, CGS 21860, and SCH 58261 (Tocris, Ellisville, Mo.) were each dissolved in DMSO then diluted in PBS to the desired concentration; in most cases final DMSO concentrations were <0.5% (vol/vol). Lexiscan (Regadenoson; TRC, Inc., Toronto) was dissolved in PBS. For vehicle controls, DMSO was diluted in PBS to the same concentration. Dehydrated dextrans labeled with either FITC or Texas Red (Invitrogen, Carlsbad, Calif.) were re-suspended in PBS to 10 mg/ml. All experiments involving dextran injection used 1.0 mg dextran in PBS. In experiments where drug and dextran were injected concomitantly, 1.0 mg of dextran was mixed with the drug to the desired concentration in a final volume of 200 μl. In dose-response experiments, drugs and dextrans were injected concomitantly. All injections, except injections of SCH 58261, were retro-orbital i.v. with a 27-gauge needle. In the SCH 58261 experiment, SCH 58261 injections, 1 mg/kg, were intraperitoneal and mice were pre-dosed with this concentration daily for 4 days prior to the day of the experiment. An additional injection was administered at the time of the experiment. Vehicle/drug and dextrans were injected on day 5 and tissues were collected 3 h after vehicle/drug administration. In Lexiscan experiments, Lexiscan was administered i.v. with 3 injections, 5 min apart and tissues were collected at 15 min unless otherwise indicated.
In dose-response experiments and experiments with the A1 AR and A2A AR knock-out mice, drugs and dextrans were injected concomitantly. After 3 h, the mice were anesthetized with ketamine/xylazine and subjected to a nose cone containing isoflurane. They were perfused with 25-50 ml ice-cold PBS through the left ventricle of the heart then decapitated. Their brains were removed, weighed and frozen for later analysis.
Ice-cold 50 mMTris-Cl (pH 7.6) was added to frozen brains (100 μl per 100 mg brain) and were to thawed on ice. They were homogenized with a dounce homogenizer and centrifuged at […] in a microfuge for 30 min at room temperature (rt). The supernatants were transferred to new tubes and an equal volume absolute methanol was added. The samples were centrifuged again at […] for 30 min at rt. Supernatant (200 μl) was transferred to a Corning costar 96 well black polystyrene assay plate (clear bottom). Additionally, a series of standards containing 0.001-10 pg/ml dextran in 50% Tris-Cl/50% absolute methanol (vol/vol) was added to each plate. Absolute concentrations of dextrans were derived from these standard curves. Fluorimetric analysis was performed on a BioTek (Winooski, Vt.) Synergy 4. FITC-dextran was detected at 488/519 (excitation/emission) and Texas Red-dextran was detected at 592/618.

[4] = cited from earlier work
[5] = test system: blood brain barrier; test: Evans Blue dye extravasation across the blood brain barrier in mice immunized for EAE; format: in vivo; conditions: WT EAE mice, 100 μl 0.01 nM on days 1, 3, 5, 7, 9; dye on day 10
Protocol: In order to determine if activation of adenosine receptors would induce extravazation of Evans Blue dye across the blood brain barrier (BBB), mice were first treated on day one with NECA, a non-selective adenosine receptor agonist (n=2, 100 μl 0.01 nM); and, PBS as a vehicle control (n=2, 100 μl). On day 2 mice were then immunized with CFA-MOG35-55 and pertussis to induce EAE. Then NECA or PBS was administered every other day on day 3, day 5, day 7 and day 9. On day 10, mice were injected intravenously with 200 μl 1% Evans Blue dye ([…] total dye injected). Six hours after administration of Evans Blue, mice were anesthetized with a ketamine/xylazine mix and perfused via the left ventricle with ice cold PBS. Brains were harvested and homogenized in n,n-dimethylformamide (DMF) at 5 μl/mg (v:w). Tissue was incubated for 72 hours at room temperature in DMF to extract the dye. Following extraction, the tissue/solvent mixture was centrifuged at 500×g for 30 minutes and 100 μl of supernatant was read on a BioTex spectrophotometer at 620 nm.

| SMILES | binding of i.v. injected 6E10 antibody to Aβ plaques in brain [1] | cAMP levels [2] | levels of i.v.-administered dextrans in brain compared to wild type mice ([3]; A1−/− and A2A−/− mice, i.v., 3 h) | FITC-dextran extravasation into brain (pilot experiment, data not shown) ([3]; CD73−/− mice, 10,000 Da FITC-dextran i.v.) | time of maximum entry of labeled dextran into the CNS post-treatment ([3]; WT mice, 0.08 mg/kg i.v., dextran co-administered at T0) [h] | time by which barrier permeability returns to baseline ([3]; WT mice, 0.08 mg/kg i.v., dextran given at indicated times after treatment) [h] | effect of higher concentrations on dextran entry ([3]; WT mice, doses above 0.08 mg/kg) | dose giving maximum entry of dextrans into the CNS ([3]; WT mice, i.v., 3 h) [mg/kg] | CNS entry of 10,000 Da and 70,000 Da dextrans ([3]; WT mice, i.v., 3 h, varying dose, vs vehicle) | half-life [4] [h] | BBB permeability to Evans Blue dye [5] | BBB permeability after NECA administration with A2A blockade ([3]; A1 AR−/− mice pre-treated with the antagonist before NECA) | entry of 10,000 Da FITC-dextran into brain ([3]; WT mice, 1 mg/kg intraperitoneal daily for 4 days plus day of experiment) |
| --- | --- | --- | --- | --- | --- | --- | --- | --- | --- | --- | --- | --- | --- |
| CCNC(=O)[C@H]1O[C@@H](n2cnc3c(N)ncnc32)[C@H](O)[C@@H]1O [NECA, 5′-N-ethylcarboxamido adenosine] | Binding of 6E10 antibody to Aβ plaques was observed throughout the brains | increased cAMP levels | significantly lower levels | dramatic increase in FITC-dextran extravasation | 4 to 6 | 8 to 18 | no additional effect or show diminished efficacy | 0.08 | dose-dependent increases in CNS entry | ~5 | increase in BBB permeability over PBS control EAE mice |  |  |
| Nc1nc2c(cnn2CCc2ccccc2)c2nc(-c3ccco3)nn12 [SCH58261, 2-(2-Furanyl)-7-(2-phenylethyl)-7H-pyrazolo[4,3-e][1,2,4]triazolo[1,5-c]pyrimidin-5-amine] |  |  |  |  |  |  |  |  |  |  |  | no significant increase in BBB permeability was observed | significantly decreased entry of 10,000 Da FITC-dextran |
